Entries after “also recorded” stand apart in the source; their conditions may differ. Like-named read-outs stand apart in the source and are kept apart here.
Tests used:
Scn [1] = biological target: T1, Scn (Homo sapiens, UniProt P80188); conditions: cited from earlier work; for binding to Scn, qualitative binding assays: ref Holmes et al., 2005
T1 construct: made in house

Scn(C87S/K125A) [2] = biological target: T2, Scn(C87S/K125A) (Homo sapiens, UniProt P80188, C107S/K145A); assay: FQ binding assay, Scn(C87S/K125A) mutant
T2 construct: made in house
Text: (§1) Growing somewhat frustrated with our inability to fully ablate ligand binding by even fairly extensive mutation, we focused on alternate mutations involving key Pocket #1: K125A, K134A, and the combination. Both lysine side-chains contribute bracketing Coulombic, cation-π, and hydrophobic interactions to the CAM group in this calyx pocket (Fig. 1A). […] The observed < 40-fold affinity reductions were surprising, given the seemingly crucial interactions contributed by these two side-chains bracketing the key pocket.
(§2) Protein biochemistry and crystallography: Mutations were made as previously described ([Abergel et al., 2008], [Goetz et al., 2002]). All clones were confirmed by DNA sequencing. Scn proteins were expressed and purified as previously described ([Abergel et al., 2008], [Bundgaard et al., 1994], [Goetz et al., 2002]). YfiY was expressed and purified as previously described. All crystals were grown using hanging drop vapor diffusion at room temperature. […] Initial Scn structure phases were calculated from the 1L6M.pdb structure and optimized by rigid-body refinement using REFMAC5 ([Murshudov et al., 1997]), or by molecular replacement using 1L6M.pdb as the search model with PHASER ([McCoy et al., 2007]). […]

Scn(C87S/K134A) [3] = biological target: T3, Scn(C87S/K134A) (Homo sapiens, UniProt P80188, C107S/K154A); assay: FQ binding assay, Scn(C87S/K134A) mutant
T3 construct: made in house
Text: as §1, §2

Scn(C87S/K125A) [4] = biological target: T2, Scn(C87S/K125A); assay: qualitative binding by co-crystallization (crystal color), Scn(C87S/K125A); conditions: color of complex crystals
Text: as §1
(§3) Fig. 6 Effects of mutating proximal calyx-lining residues on ligand recognition. (A) Superpositions of the three Fe-ENT complexes in the crystallographic AU of the complex with the Scn(C87S/K125A) mutant are shown in a stereoview, oriented and styled as in Fig. 3C. […] (C) Superpositions of the three Fe-ENT complexes in the crystallographic AU of the complex with the Scn(C87S/K134A) mutant are shown in a stereoview. […]
(§4) Protein biochemistry and crystallography: Mutations were made as previously described ([Abergel et al., 2008], [Goetz et al., 2002]). […] Initial Scn structure phases were calculated from the 1L6M.pdb structure and optimized by rigid-body refinement using REFMAC5 ([Murshudov et al., 1997]), or by molecular replacement using 1L6M.pdb as the search model with PHASER ([McCoy et al., 2007]). […]

Scn(C87S/K134A) [5] = biological target: T3, Scn(C87S/K134A); assay: qualitative binding by co-crystallization (crystal color), Scn(C87S/K134A); conditions: color of complex crystals
Text: as §1, §3, §4

Scn(C87S/K125A/K134A) = biological target: T4, Scn(C87S/K125A/K134A) (Homo sapiens, UniProt P80188, C107S/K145A/K154A); assay: crystallographic analysis and qualitative co-crystallization binding trials, Scn(C87S/K125A/K134A); conditions: crystals grown in the presence of Fe-ENT
T4 construct: made in house

Scn [6] = biological target: T1, Scn; conditions: ref Abergel et al., 2006a, cited from earlier work
Scn(C87S/W79A/R81A) = biological target: Scn(C87S/W79A/R81A); set-up: method as in Abergel et al., 2008; conditions: W79A/R81A mutation; ref Abergel et al., 2008; cited from earlier work
Scn(C87S/Y106F) = biological target: Scn(C87S/Y106F); set-up: method as in Abergel et al., 2008; conditions: Y106F mutation; ref Abergel et al., 2008; cited from earlier work
Scn [7] = biological target: Scn; set-up: method as in Li et al., 2015; conditions: ref Li et al., 2015; cited from earlier work
human Scn (C87S) = biological target: T5, human Scn (C87S) (Homo sapiens, UniProt P80188, C107S); assay: crystallographic test of candidate ligand binding in the Scn calyx
T5 construct: made in house
Text: Pseudomonas aeruginosa is a Gram-negative γ-proteobacterium which can cause acute and chronic infections ranging from septicemia, urinary infections, wound colonization, and chronic lung colonization in cystic fibrosis patients ([Cornelis and Dingemans, 2013]). P. aeruginosa produces two chemically-distinct siderophores, pyoverdine (PVD) and PCH, with relatively high or low affinities for iron, respectively. […] The quite large PVD structure would also not be expected to fit within the Scn calyx, nor would the structure of PCH-chelated iron be expected to fit within the key binding pocket, due to tight steric constraints around the iron center imposed by K125 and K134. A preliminary crystal structure of a Scn/PCH complex (3U03.pdb) was deposited in the Protein Databank (PDB, ([Berman et al., 2000])) by a structural genomics consortium. […] First, using the deposited diffraction data, it was readily apparent that the PCH ligand as modeled sat in negative electron density in difference Fourier syntheses (Fig. 7A). Second, this particular crystal form of Scn usually contains three molecules in the asymmetric unit, though only two had been modeled in the deposited structure. Using the deposited diffraction data, we re-refined the structure (Table 2), successfully placing the third Scn molecule and improving refinement statistics: Rfree/Rwork values decreased from 0.303/0.269 (3U03.pdb) to 0.253/0.235 (Table 2).
Though hexadentate catecholate siderophores have much higher complexation constants, bidentate catecholamine hormones (e.g. norepinephrine, NE) are capable of chelating iron in 3:1 complexes, and can serve to promote bacterial growth, at least in vitro ([O'Donnell et al., 2006]). […] However, no co-crystal structure was or has been subsequently reported, and the observed crystal habit was distinct from the typical tetragonal forms observed for Scn (e.g., Fig. 6B, D, and F). […] In order to resolve this discrepancy, we undertook to directly determine the Fe-NE/Scn co-crystal structure. […]

P. aeruginosa = system: P. aeruginosa; set-up: method as in Correnti et al., 2011; conditions: in vitro; ref Correnti et al., 2011; cited from earlier work

T3 sequence (P80188 21-198 C107S/K154A): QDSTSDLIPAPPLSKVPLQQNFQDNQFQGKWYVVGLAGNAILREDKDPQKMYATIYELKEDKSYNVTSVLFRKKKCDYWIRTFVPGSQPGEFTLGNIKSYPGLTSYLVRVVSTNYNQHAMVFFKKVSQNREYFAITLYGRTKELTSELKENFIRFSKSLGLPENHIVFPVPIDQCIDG
T2 sequence (P80188 21-198 C107S/K145A): as the sequence (P80188 21-198 C107S/K154A) above, with K125A, A134K counted along it
T5 sequence (P80188 21-198 C107S): as the sequence (P80188 21-198 C107S/K154A) above, with A134K counted along it
T4 sequence (P80188 21-198 C107S/K145A/K154A): as the sequence (P80188 21-198 C107S/K154A) above, with K125A counted along it

O=C(O)c1ccc(O)c(O)c1 [3,4-DHBA]
binding to Scn (Scn [1]; ref Correnti et al., 2012): do not bind

O=C(N[C@H]1COC(=O)[C@@H](NC(=O)c2cccc(O)c2O)COC(=O)[C@@H](NC(=O)c2cccc(O)c2O)COC1=O)c1cccc(O)c1O.[Fe] [Fe-ENT]
Kd (Scn(C87S/K125A) [2]; FQ, huScn (K125A)): 15 ± 3 nM
affinity reduction versus wild-type Scn (Scn(C87S/K125A) [2]; K125A mutation): < 40 fold
Kd (Scn(C87S/K134A) [3]; FQ, huScn (K134A)): 10 ± 2 nM
affinity reduction versus wild-type Scn (Scn(C87S/K134A) [3]; K134A mutation): < 40 fold
qualitative binding by co-crystallization (Scn(C87S/K125A) [4]): binding qualitatively confirmed
qualitative binding by co-crystallization (Scn(C87S/K134A) [5]): binding also qualitatively confirmed
ligand binding (crystal structure and co-crystallization trials) (Scn(C87S/K125A/K134A)): lack of ligand binding; also recorded: fully ablating ligand binding
Kd (Scn [6]; wild-type Scn, Abergel et al., 2008, Goetz et al., 2002): 0.4 nM
Kd (Scn(C87S/W79A/R81A)): 71 nM
Kd (Scn(C87S/Y106F)): 20 nM
KD by ITC (Scn [7]): micromolar

NC[C@H](O)c1ccc(O)c(O)c1 [NE, norepinephrine]
ligand electron density in difference Fourier syntheses (human Scn (C87S); co-crystallized with 2:1:1 2,3-DHBA:NE:iron complexes): did not show difference features distinct from the previously-determined Scn:2,3-DHBA:iron complex structure
ligand electron density in difference Fourier syntheses (human Scn (C87S); crystals grown with stoichiometric 3:1 NE:iron mixtures): did not show electron density features assignable to iron or ligand atoms

CN1[C@@H]([C@H]2CSC(c3ccccc3O)=N2)SC[C@H]1C(=O)O [PCH, pyochelin]
ligand binding in calyx (re-refined crystal structure) (human Scn (C87S); re-refinement of 3U03.pdb diffraction data, under these crystallization conditions): does not bind
binding to Scn, qualitative binding assays (Scn [1]): does not appreciably bind

O=C(N[C@H]1COC(=O)[C@@H](NC(=O)c2cccc(O)c2O)COC(=O)[C@@H](NC(=O)c2cccc(O)c2O)COC1=O)c1cccc(O)c1O [apo-ENT, enterobactin/enterochelin]
Kd (Scn [6]; apo ligand (no iron)): 3.6 nM

pyoverdine [PVD]
binding to Scn, qualitative binding assays (Scn [1]): does not appreciably bind

B1: Scn: glycoprotein Siderocalin, innate immune system protein with bacteriostatic activity (protein, UniProt P80188 21-198, looked up)
Neutrophil …: QDSTSDLIPAPPLSKVPLQQNFQDNQFQGKWYVVGLAGNAILREDKDPQKMYATIYELKEDKSYNVTSVLFRKKKCDYWIRTFVPGCQPGEFTLGNIKSYPGLTSYLVRVVSTNYNQHAMVFFKKVSQNREYFKITLYGRTKELTSELKENFIRFSKSLGLPENHIVFPVPIDQCIDG
growth arrest of P. aeruginosa (P. aeruginosa): does not arrest the growth
